Paper PMC7170309, “Imidazopyridine-fused [1,3]diazepinones: modulations of positions 2 to 4 and their impacts on the anti-melanoma activity” (Journal of Enzyme Inhibition and Medicinal Chemistry, 2020)

How the values were obtained:
MDA-MB-468 = assay: NCI-60 SRB assay, MDA-MB-468 (Breast Cancer); type: cell-based, human; settings: 10 µM, 48 h;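 for Mean G% - G%: mean growth across the NCI-60 panel minus this line's growth with positive meaning more sensitive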
Procedure: (§1) Primary anticancer assay was performed on a panel of 60 human cancer cell lines derived from nine neoplastic diseases, in accordance with the protocol of the Drug Evaluation Branch, National Cancer Institute, Bethesda, Maryland, USA[22]. Cells were incubated with tested compounds at 10 µM for 48 h. The growth percentage was evaluated spectrophotometrically using a protein binding dye, SRB. Results for each tested compound were reported as the percent of growth of treated cells when compared to untreated control cells.
(§2) To better compare the activity profile of these two series of compounds, compounds 5 and 8 were selected and then evaluated towards a panel of sixty cancer cell lines corresponding to nine different cancer types, i.e. leukaemia, melanoma, as well as lung, colon, central nervous system, ovarian, renal, prostate and breast cancers (NCI evaluation). Indeed, it is now well established that the growth inhibitory patterns of anticancer drugs against the NCI-60 cell line panel correlated well with their modes of action. For example, compounds that bind to tubulin have similar growth inhibition patterns regardless of which site on tubulin they bind[30]. […] Compounds were tested using the sulforhodamine B (SRB) assay that provides a direct cell density index. The amount of dye incorporated by the cells increases with the increase of the total protein biomass. Cells were incubated for 48 h with compounds at 10 µM concentration, then cell growth was evaluated spectrophotometrically and presented as the percent of untreated control cells. Values of the most sensitive cell lines were compared to those obtained with JMV5038 (Figure 4, for all data see SI).

MCF7 = assay: NCI-60 SRB assay, MCF7 (Breast Cancer); type: cell-based, human; settings: 10 µM, 48 h;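 for Mean G% - G%: mean growth across the NCI-60 panel minus this line's growth with positive meaning more sensitive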
Procedure: as §1, §2

RXF 393 = assay: NCI-60 SRB assay, RXF 393 (Renal Cancer); type: cell-based, human; settings: 10 µM, 48 h
Procedure: as §1, §2

HT29 = assay: NCI-60 SRB assay, HT29 (Colon Cancer); type: cell-based, human; settings: 10 µM, 48 h;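 for Mean G% - G%: mean growth across the NCI-60 panel minus this line's growth with positive meaning more sensitive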
Procedure: as §1, §2

HCC-2998 = assay: NCI-60 SRB assay, HCC-2998 (Colon Cancer); type: cell-based, human; settings: 10 µM, 48 h;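 for Mean G% - G%: mean growth across the NCI-60 panel minus this line's growth with positive meaning more sensitive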
Procedure: as §1, §2

SW-620 = assay: NCI-60 SRB assay, SW-620 (Colon Cancer); type: cell-based, human; settings: 10 µM, 48 h
Procedure: as §1, §2

OVCAR-3 = assay: NCI-60 SRB assay, OVCAR-3 (Ovarian Cancer); type: cell-based, human; settings: 10 µM, 48 h
Procedure: as §1, §2

A498 = assay: NCI-60 SRB assay, A498 (Renal Cancer); type: cell-based, human; settings: 10 µM, 48 h
Procedure: as §1, §2

A375 melanoma cells = assay: Neutral red uptake (NRU) viability assay, A375; type: cell-based, human; settings: Homo sapiens, A-375, 72 h, mean ± SD of three experiments
[1] = system: MDA-MB-435 melanoma cells; assay: Neutral red uptake (NRU) viability assay, MDA-MB-435; type: cell-based, human; settings: Homo sapiens, MDA-MB-435; NRU assay, 72 h, mean ± SD of three experiments
HS 578T = assay: NCI-60 SRB assay, HS 578T (Breast Cancer); type: cell-based, human; settings: 10 µM, 48 h
Procedure: as §1, §2

LOX IMVI = assay: NCI-60 SRB assay, LOX IMVI (Melanoma); type: cell-based, human; settings: 10 µM, 48 h
Procedure: as §1, §2

SK-MEL-28 = assay: NCI-60 SRB assay, SK-MEL-28 (Melanoma); type: cell-based, human; settings: 10 µM, 48 h
Procedure: as §1, §2

MOLT-4 = assay: NCI-60 SRB assay, MOLT-4 (Leukemia); type: cell-based, human; settings: 10 µM, 48 h
Procedure: as §1, §2

[2] = system: NCI-60 cancer cell line panel; assay: NCI-60 SRB assay, whole panel; type: cell-based, human; settings: 10 µM, 48 h
Procedure: as §1, §2

SNB-75 = assay: NCI-60 SRB assay, SNB-75 (CNS Cancer); type: cell-based, human; settings: 10 µM, 48 h
Procedure: as §1, §2

TK-10 = assay: NCI-60 SRB assay, TK-10 (Renal Cancer); type: cell-based, human; settings: 10 µM, 48 h
Procedure: as §1, §2

EKVX = assay: NCI-60 SRB assay, EKVX (NSCLC); type: cell-based, human; settings: 10 µM, 48 h
Procedure: as §1, §2

NCI-H23 = assay: NCI-60 SRB assay, NCI-H23 (NSCLC); type: cell-based, human; settings: 10 µM, 48 h
Procedure: as §1, §2

NCI-H460 = assay: NCI-60 SRB assay, NCI-H460 (NSCLC); type: cell-based, human; settings: 10 µM, 48 h
Procedure: as §1, §2

T-47D = assay: NCI-60 SRB assay, T-47D (Breast Cancer); type: cell-based, human; settings: 10 µM, 48 h
Procedure: as §1, §2

U251 = assay: NCI-60 SRB assay, U251 (CNS Cancer); type: cell-based, human; settings: 10 µM, 48 h
Procedure: as §1, §2

COLO 205 = assay: NCI-60 SRB assay, COLO 205 (Colon Cancer); type: cell-based, human; settings: 10 µM, 48 h
Procedure: as §1, §2

## [N-]=[N+]=NCCCC[C@@H]1NC(c2ccc(Br)cc2)=Nc2nc3ccccn3c2C1=O [Compound 16, (4S)-4-(4-azidobutyl)-2-(4-bromophenyl)-3,4-dihydro-5H-pyrido[1’,2’:1,2]imidazo[4,5-d][1,3]diazepin-5-one]
MDA-MB-468
  Mean G% - G%: -6,46%
MDA-MB-468; growth vs untreated control
  G%: 98,23%
other
  melting point: 127 to 128 °C
MCF7
  Mean G% - G%: 11,80%
MCF7; growth vs untreated control
  G%: 79,97%
RXF 393
  Mean G% - G%: 10,83%
RXF 393; growth vs untreated control
  G%: 80,94%
HT29
  Mean G% - G%: -14,13%
HT29; growth vs untreated control
  G%: 105,90%
HCC-2998
  Mean G% - G%: -20,61%
HCC-2998; growth vs untreated control
  G%: 112,38%
SW-620
  Mean G% - G%: -0,19%
SW-620; growth vs untreated control
  G%: 91,96%
OVCAR-3
  Mean G% - G%: -11,51%
OVCAR-3; growth vs untreated control
  G%: 103,28%
A498
  Mean G% - G%: 8,90%
A498; growth vs untreated control
  G%: 82,87%
A375 melanoma cells
  IC50: 3.68 ± 0.63 µM
[1]
  IC50: 4.12 ± 0.22 µM
HS 578T
  Mean G% - G%: -1,51%
HS 578T; growth vs untreated control
  G%: 93,28%
LOX IMVI
  Mean G% - G%: 5,56%
LOX IMVI; growth vs untreated control
  G%: 86,21%
SK-MEL-28
  Mean G% - G%: -18,13%
SK-MEL-28; growth vs untreated control
  G%: 109,90%
MOLT-4
  Mean G% - G%: 4,57%
MOLT-4; growth vs untreated control
  G%: 87,20%
[2]
  Mean G% (mean growth over the panel): 91.77%
SNB-75
  Mean G% - G%: 4,12%
SNB-75; growth vs untreated control
  G%: 87,65%
TK-10
  Mean G% - G%: -38,14%
TK-10; growth vs untreated control
  G%: 129,91%
EKVX
  Mean G% - G%: 12,19%
EKVX; growth vs untreated control
  G%: 79,58%
NCI-H23
  Mean G% - G%: -7,34%
NCI-H23; growth vs untreated control
  G%: 99,11%
NCI-H460
  Mean G% - G%: 0,98%
NCI-H460; growth vs untreated control
  G%: 90,79%
T-47D
  Mean G% - G%: 10,17%
T-47D; growth vs untreated control
  G%: 81,60%
U251
  Mean G% - G%: 0,74%
U251; growth vs untreated control
  G%: 91,03%
COLO 205
  Mean G% - G%: -15,42%
COLO 205; growth vs untreated control
  G%: 107,19%
